Experiment [1] addresses T1, c-Met kinase domain recombinant protein (Homo sapiens, UniProt P08581).
T1 construct: 50 μL diluted solution of c-Met kinase domain recombinant protein in reaction buffer was added to initiate the reaction
As to the kind of experiment: biochemical. Conditions: read-out: Inhibition rate at 10 μM (%). The essentials:
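ELISA on plates coated with Poly(Glu,Tyr)4:1 (20 μg/mL), kinase reaction with c-Met kinase domain and ATP in HEPES pH 7.4 buffer with MgCl2, MnCl2, Na3VO4 and DTT, 1 h at 37 °C. Phosphotyrosine detected with PY99 and HRP secondary antibody, read at 490 nm; inhibition rate calculated against ATP-free control.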

The target of experiment [2] is T1, c-Met kinase domain recombinant protein. Briefly: biochemical. As to conditions: for inhibition at 0.1 µM: read-out: Average inhibition rate at 0.1 μM (%); for inhibition at 1 µM: read-out: Average inhibition rate at 1 μM (%); for inhibition at 10 µM: read-out: Average inhibition rate at 10 μM (%). The essentials:
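ELISA on plates coated with Poly(Glu,Tyr)4:1 (20 μg/mL coating solution). Recombinant c-Met kinase domain reacted with 5 μM ATP in HEPES pH 7.4 with Mg/Mn, vanadate and DTT for 1 hour at 37° C. Phosphotyrosine was detected with PY99 and HRP secondary antibody, read at 490 nm, and IC50 was taken from a four-parameter fit.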

The subject of another experiment is BaF3/TPR-Met cell. Briefly: Test III: growth inhibition of engineered BaF3/TPR-Met cells (MTT). As to conditions: Mus musculus; for inhibition at 1 µM: read-out: Cell proliferation inhibition rate at 1 μM (%); for inhibition at 0.2 µM: read-out: Cell proliferation inhibition rate at 200 nM (%). Format: cell-based. As to the method:
Assays on the growth inhibition of the compounds against engineered BaF3/TPR-Met cell (engineered cell line having TPR-Met fusion protein stably expressed in cytoplasm, persistently activated, Met dependent sensitive cell line; BaF3 cell was purchased from DSMZ, German) were detected using microculture tetrozolium (MTT) staining. A certain amount of BaF3/TPR-Met cells at log phase were inoculated into 96-well culture plate at 90 µL per well, incubated overnight and then 10 μL compound at various concentrations or vehicle control (normal saline) was added, each concentration was tested in triplicate. After incubation with compound for 72 hours, the incubation was terminated, MTT solution (5 mg/mL) was added at 20 μL per well, incubated at 37° C. for 4 hours, then 100 μL triplet solution (10% SDS−5% isobutanol−0.01M HCl) was added, incubated overnight at 37° C., OD value was measured at 570 nm. […] Experiments were conducted in duplicates.

Like-named read-outs stand apart in the source and are kept apart here.

T1 sequence (P08581 1078-1345 limits assumed): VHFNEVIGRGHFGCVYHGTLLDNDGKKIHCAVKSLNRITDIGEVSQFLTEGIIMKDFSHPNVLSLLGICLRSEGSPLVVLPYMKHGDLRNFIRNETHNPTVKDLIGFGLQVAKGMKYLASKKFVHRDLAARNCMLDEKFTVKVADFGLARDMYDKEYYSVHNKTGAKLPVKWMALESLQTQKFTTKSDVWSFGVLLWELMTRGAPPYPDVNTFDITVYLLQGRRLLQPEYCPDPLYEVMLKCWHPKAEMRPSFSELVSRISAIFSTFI

With `O=S(=O)(c1cnc2ccccn12)n1ncc2ncc(-c3ccsc3)cc21` [Example 29, 1-(imidazo[1,2-a]pyridine-3-sulfonyl)-6-(3-thienyl)-1-H-pyrazolo[4,3-b]pyridine], the inhibition at 10 µM in experiment [1] worked out at 65.7%. Moreover, in experiment [2], the IC50 is 4.6 ± 1 nM, the inhibition at 0.1 µM worked out at 55.7%, the inhibition at 1 µM was found to be 63.8% and the inhibition at 10 µM stood at 65.7%. Besides, the inhibition at 1 µM in the experiment with BaF3/TPR-Met cell (BaF3, 72 h) came to 92.6%.

For `CN1CCN(C(=O)c2ccc(-c3cnc4cnn(S(=O)(=O)c5cnc6ccccn56)c4c3)cc2)CC1` [Example 37, 1-(imidazo[1,2-a]pyridine-3-sulfonyl)-6-[4-(4-methylpiperazine-1-carbonyl)phenyl]-1-H-pyrazolo[4,3-b]pyridine], the inhibition at 10 µM in experiment [1] came out at 73.3%. Moreover, in experiment [2], the IC50 was 6.4 ± 2.2 nM, the inhibition at 0.1 µM came out at 60.1%, the inhibition at 1 µM came out at 63.8% and the inhibition at 10 µM is 73.3%. In the experiment on BaF3/TPR-Met cell (BaF3, 72 h), the inhibition at 0.2 µM amounted to 59.5% and the inhibition at 1 µM was 96.2%.

As to `O=S(=O)(c1cnc2ccccn12)n1ncc2ncc(-c3ccc(N4CCOCC4)cc3)cc21` [Example 39, 1-(imidazo[1,2-a]pyridine-3-sulfonyl)-6-(4-morpholinylphenyl)-1-H-pyrazolo[4,3-b]pyridine], the inhibition at 10 µM in experiment [1] was 68.8%. In experiment [2], the IC50 came out at 2.6 ± 0.3 nM, the inhibition at 0.1 µM amounted to 58.2%, the inhibition at 1 µM is 65% and the inhibition at 10 µM was found to be 68.8%. In addition, in the experiment with BaF3/TPR-Met cell (BaF3, 72 h), the inhibition at 0.2 µM turned out to be 74.4% and the inhibition at 1 µM is 96.3%.

As to `CC(C)(C)OC(=O)N1CCC(n2cc(-c3cnc4cnn(S(=O)(=O)c5cnc6ccccn56)c4c3)cn2)CC1` [Example 44, 1-(imidazo[1,2-a]pyridine-3-sulfonyl)-6-{{1-[(1-t-butoxycarbonyl)-4-piperidinyl]}-4-pyrazolyl}-1-H-pyrazolo[4,3-b]pyridine], the inhibition at 10 µM in experiment [1] came to 87.5%. Also, in experiment [2], the IC50 is 6.9 ± 1.9 nM, the inhibition at 0.1 µM was found to be 74.6%, the inhibition at 1 µM was determined as 78.6% and the inhibition at 10 µM came to 87.5%. For the same compound, in the experiment on BaF3/TPR-Met cell (BaF3, 72 h), the inhibition at 0.2 µM was determined as 95% and the inhibition at 1 µM is 95.8%.

Consider `O=S(=O)(c1cnc2ccccn12)n1ncc2ncc(-c3cnn(C4CCNCC4)c3)cc21` [Example 45, 1-(imidazo[1,2-a]pyridine-3-sulfonyl)-6-{[1-(4-piperidinyl)]-4-pyrazolyl}-1-H-pyrazolo[4,3-b]pyridine], for which, in experiment [1], the inhibition at 10 µM worked out at 89.6%. Moreover, in experiment [2], the IC50 was 2.9 ± 0.6 nM, the inhibition at 0.1 µM is 73.4%, the inhibition at 1 µM is 76.5% and the inhibition at 10 µM was 89.6%. Moreover, in the experiment on BaF3/TPR-Met cell (BaF3, 72 h), the inhibition at 0.2 µM amounted to 27.9% and the inhibition at 1 µM came to 95.9%.

As to `CC(C)(C)OC(=O)N1CCC(n2cc(-c3cnc4cnn(S(=O)(=O)c5cnn6cccnc56)c4c3)cn2)CC1` [Example 46, 1-(pyrazolo[1,5-a]pyrimidine-3-sulfonyl)-6-{{1-[(1-t-butoxycarbonyl)-4-piperidinyl]}-4-pyrazolyl}-1-H-pyrazolo[4,3-b]pyridine], in experiment [1], the inhibition at 10 µM came out at 81.3%. Moreover, in experiment [2], the inhibition at 0.1 µM came out at 55.9%, the inhibition at 1 µM came out at 65% and the inhibition at 10 µM turned out to be 81.3%. Further, the inhibition at 0.2 µM with BaF3/TPR-Met cell (BaF3/TPR-Met, 200 nM, 72 hours) is 33.7%. For the same compound, the inhibition at 1 µM with BaF3/TPR-Met cell (BaF3/TPR-Met, 1 μM, 72 hours) came to 68%.

For the compound `CC(C)(C)OC(=O)N1CCC(n2cc(-c3cnc4cnn(S(=O)(=O)c5cnc6cccnn56)c4c3)cn2)CC1` [Example 49, 1-(imidazo[1,2-b]pyridazine-3-sulfonyl)-6-{{1-[(1-t-butoxycarbonyl)-4-piperidinyl]}-4-pyrazolyl}-1-H-pyrazolo[4,3-b]pyridine], the inhibition at 10 µM in experiment [1] is 76.7%. Also, in experiment [2], the inhibition at 0.1 µM was 71%, the inhibition at 1 µM was 74.5% and the inhibition at 10 µM is 76.7%. In addition, the inhibition at 0.2 µM in the experiment with BaF3/TPR-Met cell (BaF3/TPR-Met, 200 nM, 72 hours) turned out to be 28.4%. Also, the inhibition at 1 µM with BaF3/TPR-Met cell (BaF3/TPR-Met, 1 μM, 72 hours) was 90.5%.

For `O=S(=O)(c1cnc2cccnn12)n1ncc2ncc(-c3cnn(C4CCNCC4)c3)cc21` [Example 51], the inhibition at 10 µM in experiment [1] worked out at 72.3%. In addition, in experiment [2], the inhibition at 0.1 µM was found to be 64.6%, the inhibition at 1 µM is 66.7% and the inhibition at 10 µM worked out at 72.3%. Moreover, in the experiment on BaF3/TPR-Met cell (BaF3/TPR-Met, 200 nM, 72 hours), the inhibition at 0.2 µM turned out to be 15.3%. For the same compound, the inhibition at 1 µM with BaF3/TPR-Met cell (BaF3/TPR-Met, 1 μM, 72 hours) came to 7.7%.

On to `CCN1CCC(n2cc(-c3cnc4cnn(S(=O)(=O)c5cnc6ccccn56)c4c3)cn2)CC1` [Example 53, 1-(imidazo[1,2-a]pyridine-3-sulfonyl)-6-{{1-[(1-ethyl)-4-piperidinyl]}-4-pyrazolyl}-1-H-pyrazolo[4,3-b]pyridine], for which the inhibition at 10 µM in experiment [1] is 65.7%. Moreover, in experiment [2], the inhibition at 0.1 µM came to 67.5%, the inhibition at 1 µM is 68.4% and the inhibition at 10 µM stood at 74.1%. The inhibition at 1 µM in the experiment on BaF3/TPR-Met cell (BaF3/TPR-Met, 1 μM, 72 hours) stood at 90.9%.

`CC(=O)N1CCC(n2cc(-c3cnc4cnn(S(=O)(=O)c5cnc6ccccn56)c4c3)cn2)CC1` [Example 54, 1-(imidazo[1,2-a]pyridine-3-sulfonyl)-6-{{1-[(1-acetyl)-4-piperidinyl]}-4-pyrazolyl}-1-H-pyrazolo[4,3-b]pyridine]: the inhibition at 10 µM in experiment [1] was 70.7%. In experiment [2], the inhibition at 0.1 µM stood at 55.9%, the inhibition at 1 µM was determined as 57.9% and the inhibition at 10 µM came out at 62.1%. Further, the inhibition at 0.2 µM with BaF3/TPR-Met cell (BaF3/TPR-Met, 200 nM, 72 hours) was 88.3%. Besides, the inhibition at 1 µM with BaF3/TPR-Met cell (BaF3/TPR-Met, 1 μM, 72 hours) is 89.6%.

Regarding `O=C(C1CC1)N1CCC(n2cc(-c3cnc4cnn(S(=O)(=O)c5cnc6ccccn56)c4c3)cn2)CC1` [Example 55, 1-(imidazo[1,2-a]pyridine-3-sulfonyl)-6-{{1-[(1-cyclopropylcarbonyl)-4-piperidinyl]}-4-pyrazolyl}-1-H-pyrazolo[4,3-b]pyridine], in experiment [1], the inhibition at 10 µM was determined as 74.1%. Also, in experiment [2], the IC50 was 1.3 ± 0.1 nM, the inhibition at 0.1 µM was determined as 58.8%, the inhibition at 1 µM came to 58.3% and the inhibition at 10 µM turned out to be 60.8%. Further, in the experiment on BaF3/TPR-Met cell (BaF3, 72 h), the inhibition at 0.2 µM came to 89.3% and the inhibition at 1 µM came to 89.8%.

For the compound `O=C(C1CCCC1)N1CCC(n2cc(-c3cnc4cnn(S(=O)(=O)c5cnc6ccccn56)c4c3)cn2)CC1` [Example 56, 1-(imidazo[1,2-a]pyridine-3-sulfonyl)-6-{{1-[(1-cyclopentylcarbonyl)-4-piperidinyl]}-4-pyrazolyl}-1-H-pyrazolo[4,3-b]pyridine], in experiment [1], the inhibition at 10 µM is 62.1%. In experiment [2], the inhibition at 0.1 µM came out at 53.3%, the inhibition at 1 µM was 56.3% and the inhibition at 10 µM stood at 58.9%. The inhibition at 0.2 µM in the experiment with BaF3/TPR-Met cell (BaF3/TPR-Met, 200 nM, 72 hours) was found to be 79.1%. In addition, the inhibition at 1 µM in the experiment on BaF3/TPR-Met cell (BaF3/TPR-Met, 1 μM, 72 hours) is 90.6%.

On to `O=C(C1CCCCC1)N1CCC(n2cc(-c3cnc4cnn(S(=O)(=O)c5cnc6ccccn56)c4c3)cn2)CC1` [Example 57, 1-(imidazo[1,2-a]pyridine-3-sulfonyl)-6-{{1-[(1-cyclohexylcarbonyl)-4-piperidinyl]}-4-pyrazolyl}-1-H-pyrazolo[4,3-b]pyridine], for which the inhibition at 10 µM in experiment [1] is 60.8%. In experiment [2], the inhibition at 0.1 µM came to 52.4%, the inhibition at 1 µM was determined as 54.5% and the inhibition at 10 µM is 60.3%. Further, the inhibition at 0.2 µM with BaF3/TPR-Met cell (BaF3/TPR-Met, 200 nM, 72 hours) amounted to 86.8%. Further, in the experiment on BaF3/TPR-Met cell (BaF3/TPR-Met, 1 μM, 72 hours), the inhibition at 1 µM turned out to be 89.5%.

With `CC(C)N1CCC(n2cc(-c3cnc4cnn(S(=O)(=O)c5cnc6ccccn56)c4c3)cn2)CC1` [Example 59, 1-(imidazo[1,2-a]pyridine-3-sulfonyl)-6-{{1-[(1-isopropyl)-4-piperidinyl]}-4-pyrazolyl}-1-H-pyrazolo[4,3-b]pyridine], the inhibition at 10 µM in experiment [1] was 60.3%. Besides, in experiment [2], the inhibition at 0.1 µM stood at 51.6%, the inhibition at 1 µM came out at 51.9% and the inhibition at 10 µM came to 59.8%. The inhibition at 0.2 µM in the experiment with BaF3/TPR-Met cell (BaF3/TPR-Met, 200 nM, 72 hours) is 70.6%. The inhibition at 1 µM in the experiment with BaF3/TPR-Met cell (BaF3/TPR-Met, 1 μM, 72 hours) came to 89.8%.

For the compound `O=S(=O)(c1cnc2ccccn12)n1ncc2ncc(-c3cnn(C4CCN(C5CCCC5)CC4)c3)cc21` [Example 60, 1-(imidazo[1,2-a]pyridine-3-sulfonyl)-6-{{1-[(1-cyclopentyl)-4-piperidinyl]}-4-pyrazolyl}-1-H-pyrazolo[4,3-b]pyridine], the results for the inhibition at 10 µM in experiment [1] and in experiment [2] were 57.4% and 62.6%, respectively. Besides, the inhibition at 0.1 µM in experiment [2] stood at 50.1%. Further, the inhibition at 1 µM in experiment [2] was 53.4%; with BaF3/TPR-Met cell (BaF3/TPR-Met, 1 μM, 72 hours) it was 89.4%. Besides, the inhibition at 0.2 µM with BaF3/TPR-Met cell (BaF3/TPR-Met, 200 nM, 72 hours) worked out at 84.8%.

A word on the IC50: it is the concentration that gives 50% inhibition.
